# Measurements: article PMC6930638, “The Masked Polar Group Incorporation (MPGI) Strategy in Drug Design: Effects of Nitrogen Substitutions on Combretastatin and Isocombretastatin Tubulin Inhibitors” (Molecules, 2019)
# pIC50: −log10 of the molar value. Read-outs that look alike come from different tables or passages of the source.
# Experiments:
# [1] = system: Bovine brain microtubule protein (MTP); design: method as in PMID 26092446; details: comparison values in text; read-out: TPI IC50; cited from earlier work
# [2] = system: HeLa cervix epithelioid carcinoma; assay: MTT cell antiproliferative assay, HeLa; type: cell-based; details: Homo sapiens, 72 h
# [3] = system: HT-29 colon adenocarcinoma; assay: MTT cell antiproliferative assay, HT-29 (without or with verapamil); type: cell-based, human
# Description: The in vitro antiproliferative activity of the synthesized compounds was evaluated by a colorimetric reaction, using the MTT reagent. They were tested against three different human tumor cell lines: HeLa cervix epithelioid carcinoma, HT-29 colon adenocarcinoma, and MCF-7 breast adenocarcinoma. […] Moving the alkylamino substituent from a para to a meta position with respect to the bridge results in potency reduction, except for the phenstatin analogue 1f. However, the introduction of a nitrogen atom to form 2-dimethylaminopyridine derivatives entails a loss of activity, both for phenstatin analogues (1b, 2b), while for isocombretastatins, it only involves a 2–3 times potency decrease (3b). For combretastatins, it implies an improvement in the cytotoxicity values down to tenths of nanomolar (8b). […] On the other hand, the best 2-dimethylaminopyridine was combretastatin 8b. All ammonium salts derivatives were not cytotoxic at micromolar concentrations.
# As observed in Table 1, there are no significant changes in the IC50 values for most compounds, except for combretastatins 8a and 8i.
# Acquired resistance to antitumor drugs is one of the more important problems of chemotherapy, also affecting tubulin-targeting drugs. In order to ascertain the impact of multidrug resistance phenotypes on the action of the compounds, we have measured the cell proliferation inhibitory activity of HT-29 cells in the presence of verapamil, a known P-glycoprotein 1/multidrug resistance protein 1 (MDR1) inhibitor at a concentration of 10 µM, not affecting cell proliferation. […] Except for the combretastatin analogues 8a and 8i, the affected drugs are all pyridine drugs.
# HeLa (human cervical carcinoma) and MCF-7 (human breast carcinoma) cell lines were cultured in Dulbecco’s Modified Eagles Medium (DMEM) supplemented with 2 mM L-glutamine (Lonza-Cambrex, Karlskoga, Sweden), 10% (v/v) heat inactivated fetal bovine serum (HIFBS) (Lonza-Cambrex) and 100 μg/mL streptomycin-100 IU/mL penicillin (Lonza-Cambrex) at 37 °C in humidified 95% air and 5% CO2. HT-29 (human colon carcinoma) cells were cultured at 37 °C in complete RPMI 1640 medium containing 2 mM L-glutamine, 10% (v/v) HIFBS and 100 μg/mL streptomycin-100 IU/mL penicillin in humidified 95% air and 5% CO2 atmosphere.
# The effect of the different compounds on the proliferation of human cell lines was determined by using the MTT (3-[4,5-dimethylthiazol-2-yl]-2,5-diphenyltetrazolium bromide) reagent (MTT Thiazolyl Blue Tetrazolium Bromide, Sigma-Aldrich, St. Louis, MO, USA) dissolved in PBS 5 mg/mL. Cell viability was evaluated seeding 100 µL of cells in exponential growth phase with appropriate cell line concentration (1.5 × 10^4 HeLa and MCF-7 cells/mL and 3 × 10^4 HT-29 cells/mL) in complete medium in 96-well plates at 37 °C and 5% CO2. After 24 h incubation to allow cells to attach to the plates the ligands were added at different concentrations from 10^−5 to 10^−9 M. The effect on the proliferation was evaluated 72 h post-treatment by adding the MTT reagent (10 µL/well) to a final concentration of 0.5 mg/mL and the plate was further incubated for another 3 h. After this period, the supernatant was removed, the MTT violet crystals formed on the bottom of each well were dissolved in DMSO (100 µL/well) and subsequently, the absorbance of the color complex was read at 570 nm using a multi-well plate reader. Compounds were dissolved in dimethyl sulfoxide (DMSO) and the final solvent concentrations never exceeded 0.5% (v/v). The control wells included treated cells with 0.5% (v/v) DMSO and the positive control. Measurements were performed in triplicate, and each experiment was repeated three times. […] Nonlinear curves fitting the experimental data were carried out for each compound.
# [4] = system: HeLa, HT-29 and MCF-7 human tumor cell lines; assay: Antiproliferative activity over the three human tumor cell lines (MTT); type: cell-based; details: Homo sapiens, range over the cell lines, Table S1; read-out: Cytotoxicity range (range of antiproliferative IC50 values)
# [5] = system: Bovine brain microtubule protein (MTP); assay: Tubulin polymerization inhibition assay (turbidimetry); type: biochemical; details: 1.5 mg/mL MTP; IC50 calculated only if more than 50% inhibition at 20 µM; read-out: TPI IC50
# [6] = system: MCF-7 breast adenocarcinoma; assay: MTT cell antiproliferative assay, MCF-7; type: cell-based; details: Homo sapiens, MCF7, 72 h
# [7] = system: rat primary pancreatic cells; assay: Toxicity against rat primary pancreatic cells (MTT); details: 7 h
# Description: The toxicity of the compounds against rat primary pancreatic cells was evaluated by the MTT protocol (Table 2). […] Sodium taurocholate (NaTc) was also used at high concentrations as a model of acute pancreatitis in vitro.
# Rat primary pancreatic cells were isolated as previously described. Afterwards, pancreatic cells were resuspended in Na-HEPES solution (pH 7.4) containing 14 mM glucose, 1% essential amino acid mixture, 1% (w/v) BSA, 0.01% (w/v) STI, 0.5 mM CaCl2 and incubated (5% CO2, at 37 °C) for 7 h in the absence (non-treated control) or the presence of compounds at different concentrations. After the treatment, cells were incubated (5% CO2, at 37 °C) with 0.5 mg/mL MTT for 2 h and the formazan crystals were solubilized with DMSO (v/v). The optical density was read at 570 nm with a reference wavelength of 630 nm. Non-treated cell viability was set as 100%.
smiles,measurement,setting,value
"COc1ccc(/C=C\c2cc(OC)c(OC)c(OC)c2)cc1O [CA-4, Combretastatin A4, reference compound]",pIC50,[1],5.40 to 6.00
"COc1cc(C=Cc2ccc(N(C)C)cc2)cc(OC)c1OC [Compound 8a, N,N-dimethyl-4-(3,4,5-trimethoxystyryl)aniline]",pIC50,[2],6.68
same,pIC50,[1],5.47
same,improvement of HT-29 IC50 after verapamil treatment,[3]; 10 µM verapamil,> 2 fold
same,pIC50,"[3]; Homo sapiens, HT-29, MTT, 72 h",6.30
same,pIC50,[4],6.30 to 6.99
same,pIC50,[5],5.47
same,pIC50,[6],6.56
"COc1cc([C@@H]2c3cc4c(cc3[C@@H](O[C@@H]3O[C@@H]5CO[C@@H](C)O[C@H]5[C@H](O)[C@H]3O)[C@H]3COC(=O)[C@H]23)OCO4)cc(OC)c1O [Etoposide, etoposide, reference compound]",live cells with respect to the non-treated control (means ± S.E.M.),"[7]; rat, 0.05 µM, pH 7.4",89.87 ± 11.80%
"C[C@H](CCC(=O)NCCS(=O)(=O)O)[C@H]1CC[C@H]2[C@@H]3[C@H](O)C[C@@H]4C[C@H](O)CC[C@]4(C)[C@H]3C[C@H](O)[C@]12C [NaTc, Sodium taurocholate, reference compound]",live cells with respect to the non-treated control (means ± S.E.M.),[7]; 0.50%,24.83 ± 11.86%
